Reference: US20250152564A1, “PROPYLENE KETONE-CONTAINING BIOINHIBITOR, PREPARATION METHOD THEREFOR, AND USE THEREOF” (SHANGHAI HANSOH BIOMEDICAL CO., LTD., priority 2022, published 2025)

What was measured:
[1] = target: FGFR2 V564F (Homo sapiens (Human), UniProt P21802, V564F); assay: TR-FRET kinase inhibition assay, FGFR2 V564F; assay type: biochemical; details: ATP Km concentration (20 μM)
Procedure: (§1) To measure the IC50 values of the compounds against FGFR1, FGFR2, FGFR3, FGFR4, and FGFR2 V564F at ATP Km concentrations by TR-FRET method.
(§2) TR-FRET (time-resolved fluorescence resonance energy transfer) method was used to detect the inhibitory activity of the compounds on FGFR1, FGFR2, FGFR3, FGFR4, and FGFR2 V564F kinase region fragments. The highest detection concentration of the compounds in 5 kinase experiments was 1000 nM, which was diluted in 3 folds, with a total of 11 concentrations (1000 nM to 0.017 nM). A kinase buffer (50 mM HEPES pH 7.5, 1 mM EGTA, 10 mM MgCl2, 2 mM DTT, and 0.01% Tween-20) was used to prepare 4× enzyme solution, 4× compound solutions diluted in gradient, and a 2×ATP/Peptide substrate solution. To a 384-well plate, 2.5 μL of enzyme solution and 2.5 μL of diluted […] compound solution were added, and 5 μL of 2×ATP/Peptide substrate solution was then added. After reacting at room temperature for 60 minutes for FGFR1, FGFR2, FGFR3, and FGFR2 V564F kinases, and 120 minutes for FGFR4 kinase, 10 μL of a 2× termination and detection mixed liquid prepared with 1×LANCE detection buffer with an EDTA concentration of 20 mM and a Europium-anti-phosphotyrosine (PT66) concentration of 2 nM was added to each well of the plate. After reacting at room temperature for 60 minutes for FGFR1, FGFR2, FGFR3, and FGFR4, and 30 minutes for FGFR2 V564F, the fluorescence signal value in each well of the plate was measured by a microplate reader.
(§3) 1) Inhibition rate (%): Calculation was performed on the raw data (665 nm/620 nm reading ratio) according to the following formula to obtain the inhibition rate. Inhibition rate %=[(mean value in positive control well−value in sample well)/(mean value in positive control well−mean value in negative control well)]×100, wherein the positive control well was a reaction well without a compound […], and the negative control well was a reaction wells without an enzyme.
(§4) 2) Curve fitting: Log(inhibitor) vs. response—Variable slope (four parameters) in GraphPad Prism 6 was used for fitting equation analysis of the compound concentration and the corresponding inhibition rate, and the curve was fitted to obtain the IC50 values of the compounds.

[2] = target: FGFR2 (Homo sapiens (Human), UniProt P21802); assay: TR-FRET kinase inhibition assay, FGFR2; assay type: biochemical; details: ATP Km concentration (30 μM)
Procedure: as §1, §2, §3, §4

[3] = target: FGFR1 (Homo sapiens (Human), UniProt P11362); assay: TR-FRET kinase inhibition assay, FGFR1; assay type: biochemical; details: ATP Km concentration (30 μM)
Procedure: as §1, §2, §3, §4

[4] = system: BaF3 FGFR2-BICC1 V564F cells; assay: CellTiter-Glo cell proliferation inhibition, BaF3 FGFR2-BICC1 V564F; assay type: cell-based; details: Mus musculus, 72 h, read-out: BaF3 FGFR2-BICC1 V564F inhibitory activity IC50
Procedure: (§5) To evaluate inhibitory effects of the compounds on the proliferation of NCI-H716, SNU-16 and BaF3-FGFR2-BICC1 V564F cells by cell proliferation inhibition experiments.
(§6) CellTiter-Glo method was used to detect inhibitory effects of the compounds on the proliferation of NCI-H716, SNU-16 and BaF3 FGFR2-BICC1 V564F cells. The highest detection concentration of the compounds was 1000 nM, which was diluted in 3 folds, with a total of 9 concentrations (1000 nM to 0.15 nM). After the cells were plated at an appropriate density, compounds were added the next day and incubated for 72 h before detection using the […] detection kit.
as §3, with “(%):” for “(%): Calculation was performed on the raw data (665 nm/620 nm reading ratio) according to the following formula to obtain the inhibition rate.”
as §4

[5] = system: NCI-H716 cells; assay: CellTiter-Glo cell proliferation inhibition, NCI-H716; assay type: cell-based; details: Homo sapiens, 72 h, read-out: NCI-H716 cell proliferation inhibition rate IC50
Procedure: as §5, §6
as §3, with “(%):” for “(%): Calculation was performed on the raw data (665 nm/620 nm reading ratio) according to the following formula to obtain the inhibition rate.”
as §4

[6] = Pharmacokinetic experiment in SD rats after oral administration; assay type: in vivo; details: 5 mg/kg, plasma; for AUC(0-t) / AUC(0-inf) / half-life / MRT / Cmax: male, Sprague-Dawley (SD), rat, po; for AUC(0-t): read-out: Area under the curve AUC0-t; for AUC(0-inf): read-out: Area under the curve AUC0-∞; for half-life: read-out: Half-life t1/2 (converted); for MRT: read-out: Mean residence time MRT; for Cmax: read-out: Plasma concentration Cmax; for Time to peak tmax: p.o.
Procedure: To study the pharmacokinetic behavior of the compounds of the present invention in the rat body (plasma) after oral administration at a dose of 5 mg/kg using SD rats as test animals.
3 SD rats/group, male, from Shanghai Jiesijie Experimental Animal Co., Ltd., animal production license number (SCXK (Shanghai) 2013-0006 N0.311620400001794).
PO, 10% solutol HS15-0.5% CMC-Na was dissolved by ultrasound and prepared into a clear solution or homogeneous suspension.
3 SD rats/group, male; p.o. respectively at a dose of 5 mg/kg and an administration volume of 10 mL/kg after the […] were fasted overnight.
After oral administration to rats, at 0.25, 0.5, 1, 2, 4, 6, 8 and 24 hours, 0.2 mL of blood was collected from the jugular vein, placed in an EDTA-K2 test tube, centrifuged at 6000 rpm for 6 min at 4° C. to separate the plasma, which was stored at −80° C.
1) 100 μL of acetonitrile was added to 20 μL of plasma sample for pelleting, and it was mixed and centrifuged at 3500×g for 5-20 min.
2) The treated supernatant solution was taken and subjected to LC/MS/MS to analyze the concentrations of the test compounds. LC/MS/MS analysis instrument: AB Sciex API 4000 Qtrap.
• Liquid phase conditions: Shimadzu LC-20AD pump • Chromatographic column: Waters Xbridge C18 5 μm, 4.6×50 mm mobile phase: liquid A was 0.1% aqueous formic acid solution, and liquid B was methanol • Flow rate: 1.0 mL/min • Elution time: 0-4.0 min, the eluent was as follows: […]

FGFR2, sequence (P21802 481-770): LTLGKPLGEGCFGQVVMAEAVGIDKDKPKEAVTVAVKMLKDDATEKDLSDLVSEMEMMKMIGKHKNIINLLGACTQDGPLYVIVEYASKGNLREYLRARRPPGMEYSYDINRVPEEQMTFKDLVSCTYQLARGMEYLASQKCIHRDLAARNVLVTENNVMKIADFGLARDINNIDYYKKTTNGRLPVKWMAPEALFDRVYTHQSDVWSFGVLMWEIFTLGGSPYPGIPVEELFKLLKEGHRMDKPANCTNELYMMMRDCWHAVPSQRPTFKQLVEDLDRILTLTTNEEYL
FGFR2 V564F, sequence (P21802 481-770 V564F): as the sequence (P21802 481-770) above, with V84F counted along it
FGFR1, sequence (P11362 478-767): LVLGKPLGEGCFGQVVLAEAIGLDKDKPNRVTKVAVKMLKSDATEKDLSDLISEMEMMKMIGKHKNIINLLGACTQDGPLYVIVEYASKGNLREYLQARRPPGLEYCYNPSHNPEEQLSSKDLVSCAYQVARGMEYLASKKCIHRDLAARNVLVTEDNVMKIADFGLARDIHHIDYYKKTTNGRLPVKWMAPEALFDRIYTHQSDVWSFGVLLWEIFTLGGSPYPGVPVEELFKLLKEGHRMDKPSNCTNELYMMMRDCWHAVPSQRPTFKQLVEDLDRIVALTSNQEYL

Row | Structure (SMILES) | IC50 [1] | IC50 [2] | IC50 [3] | IC50 [4] | IC50 [5] | AUC(0-t) [6] | AUC(0-inf) [6] | half-life [6] | MRT [6] | Cmax [6] | Time to peak tmax [6]
1 | C=CC(=O)N1CC[C@H](n2nc(C#Cc3cc4ncn(C)c4cc3F)c3c(N)ncc(C)c32)C1 [Example 18, (S)-1-(3-(4-amino-3-((6-fluoro-1-methyl-1H-benzo[d]imidazol-5-yl)ethynyl)-7-methyl-1H-pyrazolo[4,3-c]pyridin-1-yl)pyrrolidin-1-yl)prop-2-en-1-one] | – | – | – | – | 1.82 nM | – | – | – | – | – | –
2 | C=CC(=O)N1CC[C@H](n2nc(C#Cc3cc4ncn(C5CC5)c4cc3Cl)c3c(N)ncc(C(=O)CC)c32)C1 [Example 45, (S)-1-(3-(4-amino-3-((6-chloro-1-cyclopropyl-1H-benzo[d]imidazol-5-yl)ethynyl)-7-propionyl-1H-pyrazolo[4,3-c]pyridin-1-yl)pyrrolidin-1-yl)prop-2-en-1-one] | 0.7 nM | – | – | 0.6 nM | 1.84 nM | 1440 ng·h/mL | 1460 ng·h/mL | 4.3 h | 4.59 h | 290 ng/mL | 2 h
3 | C=CC(=O)N1CC[C@H](n2nc(C#Cc3cc4ncn(C)c4cc3F)c3c(N)ncc(C(C)=O)c32)C1 [Example 8, (S)-1-(3-(7-acetyl-4-amino-3-((6-fluoro-1-methyl-1H-benzo[d]imidazol-5-yl)ethynyl)-1H-pyrazolo[4,3-c]pyridin-1-yl)pyrrolidin-1-yl)prop-2-en-1-one] | – | – | – | 0.4 nM | 1.74 nM | – | – | – | – | – | –
4 | C=CC(=O)N1CC[C@H](n2nc(C#Cc3cc4ncn(C)c4cc3F)c3c(N)ncc(-c4nccs4)c32)C1 [Example 9, (S)-1-(3-(4-amino-3-((6-fluoro-1-methyl-1H-benzo[d]imidazol-5-yl)ethynyl)-7-(thiazol-2-yl)-1H-pyrazolo[4,3-c]pyridin-1-yl)pyrrolidin-1-yl)prop-2-en-1-one] | 1 nM | 2.2 nM | – | 1.6 nM | 1.82 nM | – | – | – | – | – | –
5 | C=CC(=O)N1CC[C@H](n2nc(C#Cc3cc4ncn(C5CC5)c4cc3F)c3c(N)ncc(-c4nccs4)c32)C1 [Example 34, (S)-1-(3-(4-amino-3-((1-cyclopropyl-6-fluoro-1H-benzo[d]imidazol-5-yl)ethynyl)-7-(thiazol-2-yl)-1H-pyrazolo[4,3-c]pyridin-1-yl)pyrrolidin-1-yl)prop-2-en-1-one] | 2.2 nM | 3.2 nM | 6.6 nM | 2.9 nM | – | – | – | – | – | – | –
6 | C=CC(=O)N1CC[C@H](n2nc(C#Cc3ccc4c(c3)ncn4C3CC3)c3c(N)ncc(C(=O)CC)c32)C1 [Example 39, (S)-1-(3-(4-amino-3-((1-cyclopropyl-1H-benzo[d]imidazol-5-yl)ethynyl)-7-propionyl-1H-pyrazolo[4,3-c]pyridin-1-yl)pyrrolidin-1-yl)prop-2-en-1-one] | 0.6 nM | 1.7 nM | 6.1 nM | 2.2 nM | – | 4190 ng·h/mL | 4240 ng·h/mL | 1 h | 2.63 h | 1250 ng/mL | 2 h

Results, then the compound that gave them:

Row | IC50 [1] | IC50 [2] | IC50 [3] | IC50 [4] | IC50 [5] | AUC(0-t) [6] | AUC(0-inf) [6] | half-life [6] | MRT [6] | Cmax [6] | Time to peak tmax [6] | Structure (SMILES)
7 | 0.7 nM | 0.4 nM | 2.7 nM | 1.6 nM | 0.94 nM | – | – | – | – | – | – | C=CC(=O)N1CC[C@H](n2nc(C#Cc3ccc4csnc4c3)c3c(N)ncc(C(C)=O)c32)C1 [Example 89, (S)-1-(3-(7-acetyl-4-amino-3-(benzo[c]isothiazole-6-ethynylene)-1H-pyrazolo[4,3-c]pyridin-1-yl)pyrrolidine-1-methyl)prop-2-en-1-one]
8 | 0.4 nM | 0.8 nM | 2.2 nM | 1 nM | 1.77 nM | – | – | – | – | – | – | C=CC(=O)N1CC[C@H](n2nc(C#Cc3cc4ncn(CC)c4cc3F)c3c(N)ncc(C(=O)C4CC4)c32)C1 [Example 61, (S)-1-(3-(4-amino-7-(cyclopropanecarbonyl)-3-((1-ethyl-6-fluoro-1H-benzo[d]imidazol-5-yl)ethynyl)-1H-pyrazolo[4,3-c]pyridin-1-yl)pyrrolidin-1-yl)prop-2-en-1-one]
9 | 0.5 nM | 1.2 nM | 3 nM | 0.4 nM | 1.94 nM | – | – | – | – | – | – | C=CC(=O)N1CC[C@H](n2nc(C#Cc3ccc4c(c3)ncn4CC)c3c(N)ncc(C(=O)C4CC4)c32)C1 [Example 58, (S)-1-(3-(4-amino-7-(cyclopropanecarbonyl)-3-((1-ethyl-1H-benzo[d]imidazol-5-yl)ethynyl)-1H-pyrazolo[4,3-c]pyridin-1-yl)pyrrolidin-1-yl)prop-2-en-1-one]
10 | 0.3 nM | 0.3 nM | 1.7 nM | 0.7 nM | 0.82 nM | – | – | – | – | – | – | C=CC(=O)N1CC[C@H](n2nc(C#Cc3ccc4cn(C)nc4c3)c3c(N)ncc(C(=O)CC)c32)C1 [Example 83, (S)-1-(3-(4-amino-3-((2-methyl-2H-indazol-6-yl)alkynyl)-7-propionyl-1H-pyrazolo[4,3-c]pyridin-1-yl)pyrrolidine-1-methyl)prop-2-en-1-one]
11 | 3.1 nM | 1.6 nM | – | 3.2 nM | 0.98 nM | – | – | – | – | – | – | C=CC(=O)N1CC[C@H](n2nc(C#Cc3ccc4csnc4c3)c3c(N)ncc(C(=O)CC)c32)C1 [Example 90, (S)-1-(3-(4-amino-3-(benzo[c]isothiazole-6-ethynylene)-7-propionyl-1H-pyrazolo[4,3-c]pyridin-1-yl)pyrrolidine-1-methyl)prop-2-en-1-one]
12 | 1.4 nM | 1.8 nM | – | 2.9 nM | 0.92 nM | – | – | – | – | – | – | C=CC(=O)N1CC[C@H](n2nc(C#Cc3ccn4ccnc4c3)c3c(N)ncc(C(C)=O)c32)C1 [Example 77, (S)-1-(3-(7-acetyl-4-amino-3-(imidazo[1,2-a]pyridine-7-ethynylene)-1H-pyrazolo[4,3-c]pyridin-1-yl)pyrrolidine-1-methyl)prop-2-en-1-one]
13 | 1.1 nM | 3.5 nM | 5.2 nM | 0.2 nM | – | – | – | – | – | – | – | C=CC(=O)N1CC[C@H](n2nc(C#Cc3cc4ncn(C5CC5)c4cc3Cl)c3c(N)ncc(C(=O)C4CC4)c32)C1 [Example 46, (S)-1-(3-(4-amino-3-((6-chloro-1-cyclopropyl-1H-benzo[d]imidazol-5-yl)ethynyl)-7-(cyclopropanecarbonyl)-1H-pyrazolo[4,3-c]pyridin-1-yl)pyrrolidin-1-yl)prop-2-en-1-one]
